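Step 1: Grow cells in 96-well plates. Step 2: Expose to compound for 48 hours at 5 concentrations. Step 3: Interpolate endpoints linearly; if unreached, use highest concentration. Definition used: TGI = concentration required for complete inhibition of growth.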
What was measured:
Test in all cases: DTP human tumour cell line panel, 48 h
COLO 205 colon = test system: COLO 205 colon
HCC-2998 colon = test system: HCC-2998 colon
HT29 colon = test system: HT29 colon
KM12 colon = test system: KM12 colon
MOLT-4 leukemia = test system: MOLT-4 leukemia
OVCAR-3 ovarian = test system: OVCAR-3 ovarian
SF-539 CNS = test system: SF-539 CNS
SK-MEL-2 melanoma = test system: SK-MEL-2 melanoma
SK-MEL-5 melanoma = test system: SK-MEL-5 melanoma
SN12C renal = test system: SN12C renal
NCI/ADR-RES ovarian = test system: NCI/ADR-RES ovarian

SMILES | TGI (COLO 205 colon) [µM] | TGI (HCC-2998 colon) [µM] | TGI (HT29 colon) [µM] | TGI (KM12 colon) [µM] | TGI (MOLT-4 leukemia) [µM] | TGI (OVCAR-3 ovarian) [µM] | TGI (SF-539 CNS) [µM] | TGI (SK-MEL-2 melanoma) [µM] | TGI (SK-MEL-5 melanoma) [µM] | TGI (SN12C renal) [µM] | TGI (NCI/ADR-RES ovarian) [µM]
O=C(C#Cc1ccccc1)Nc1ccccc1CC(c1c[nH]c2ccccc12)c1c[nH]c2ccccc12 | 44.2 | 50.6 | 87.9 | 44.4 | 34.2 | 29.2 | 30.1 | 51.9 | 31.8 | 30 | –
COc1cc2ccnc3c2c(c1OC)N(C)C=C3 | 96.3 | 33.8 | – | > 100 | > 100 | > 100 | – | 57.6 | – | > 100 | 76.4
CC(C)c1cccc(C(C)C)c1NC(=O)/C(Cc1nc2ccc(Cl)cc2[nH]c1=O)=N\NC(=O)C[N+](C)(C)C | > 100 | > 100 | > 100 | > 100 | > 100 | > 100 | > 100 | > 100 | > 100 | > 100 | –
CCN1CCC(O)(/C=C/c2ccc(Cl)c(Cl)c2)C(C(=O)/C=C/c2ccc(Cl)c(Cl)c2)C1 (stereo unspecified) | 1.74 | 3.25 | 1.82 | 1.88 | – | 1.91 | 3.55 | 3.66 | 2.18 | 2.06 | 2.27
CCCCCCCCC/C=C1/CC(CO)(COC(=O)C2CCCCC2)OC1=O (stereo unspecified) | > 100 | > 100 | > 100 | > 100 | > 100 | > 100 | – | > 100 | > 100 | > 100 | > 100
CC(=O)Nc1ccc(S(=O)(=O)Nc2cnc3ccccc3n2)cc1 | > 100 | > 100 | > 100 | > 100 | > 100 | > 100 | > 100 | > 100 | > 100 | > 100 | –
Nc1nc(Cl)cc(OCC2(CO)CCCCC2)n1 | – | 82.1 | > 100 | – | > 100 | > 100 | > 100 | – | > 100 | > 100 | > 100
Cc1ccc(C2=C(c3ccccc3)C(O)(c3ccccc3)C(c3ccccc3)=C2c2ccc(C)cc2)cc1 | – | > 100 | > 100 | > 100 | – | – | > 100 | > 100 | > 100 | > 100 | –
O=C(Cn1cc(I)c(C(=O)NCC(O)CO)n1)NCC(O)CO (stereo unspecified) | > 100 | > 100 | > 100 | > 100 | > 100 | > 100 | > 100 | > 100 | – | > 100 | –
c1ccc(C2SCc3nc4ccccc4n32)cc1 (stereo unspecified) | > 100 | > 100 | > 100 | > 100 | > 100 | 54.5 | > 100 | > 100 | 56.4 | > 100 | –
CCOC(=O)C1=C(C)NC(c2ccccc2)=C(C(=O)OCc2ccccc2)C1C#Cc1ccccc1 (stereo unspecified) | > 100 | – | – | > 100 | > 100 | > 100 | > 100 | > 100 | > 100 | > 100 | > 100
